Assay results as given in patent US6906065B2, “4-Amino-5-cyano-2-anilino-pyrimidine derivatives and their use as inhibitors of cell-cycle kinases” (AstraZeneca AB, priority 2000, dated 2005).

Biological target: T1, CDK2/Cyclin E (Homo sapiens, UniProt P24941)
T1 construct: The open reading frames of CDK2 and Cyclin E were isolated by reverse transcriptase-PCR; made in house; host or cells: Sf21 (Spodoptera frugiperda) insect cells, baculovirus co-infection, vector pVL1393
Test: in vitro kinase assay (Scintillation Proximity Assay), incorporation of [γ-33-P]-ATP into GST-Rb
Assay type: biochemical
Settings: CDK2/Cyclin E partially-purified enzyme, GST-Rb substrate, 0.2 μM ATP, 60 minutes at room temperature; read-out: CDK2 inhibitory activity IC50
Procedure: The compounds were tested in an in vitro kinase assay in 96 well format using Scintillation Proximity Assay (SPA—obtained from Amersham) for measuring incorporation of [γ-33-P]-Adenosine Triphosphate into a test substrate (GST-Retinoblastoma protein; GST-Rb). In each well was placed the compound to be tested (diluted in DMSO and water to correct concentrations) and in control wells either roscovitine as an inhibitor control or DMSO as a positive control. […]
The plates were sealed with Topseal-S plate sealers, left for two hours then spun at 2500 rpm, 1124×g., for 5 minutes. The plates were read on a Topcount for 30 seconds per well. […]
E.coli paste was resuspended in 10 ml/g of NETN buffer (50 mM Tris pH 7.5, 120 mM NaCl, 1 mM EDTA, 0.5% v/v NP-40, 1 mM PMSF, 1 ug/ml leupeptin, 1 ug/ml aprotinin and 1 ug/ml pepstatin) and sonicated for 2×45 seconds per 100 ml homogenate. […] The final product was analysed by Sodium Dodeca Sulfate (SDS) PAGE (Polyacrylamide gel) using 8-16% Tris-Glycine gels (Novex, San Diego, USA).
The open reading frames of CDK2 and Cyclin E were isolated by reverse transcriptase-PCR using HeLa cell and activated T cell mRNA as a template and cloned into the insect expression vector pVL1393 (obtained from Invitrogen 1995 catalogue number: V1392-20). […]

Row | IC50 [nM] | Structure (SMILES)
1 | 33 | N#Cc1cnc(Nc2ccc(S(=O)(=O)NC3CCC3)cc2)nc1N [Example 21, 4-Amino-5-cyano-2-{4-[N-(cyclobutyl)sulphamoyl]anilino}pyrimidine]
2 | 17 | CCCNS(=O)(=O)c1ccc(Nc2ncc(C#N)c(N)n2)cc1 [Example 23, 4-Amino-5-cyano-2-[4-(N-propylsulphamoyl)anilino]pyrimidine]
